Target: T1, Kv7.2 (Homo sapiens, UniProt O43526)
T1 construct: expressed in transfected cells
Test: Activation of Kv7.2 (in vitro assay, concentration response curve)
Assay type: cell-based
Conditions: for Emax: Kv7.2 activation max %; for EC50: activation of Kv7.2
Method: The term “EC50” in this application is defined as: the agonistic effect of a compound can be determined by testing the compound in an in vitro assay as described herein, whereby the effect of the compound is measured across a range of compound concentrations. The resulting data is plotted as a concentration response curve, which typically follows a sigmoidal function, whereby the concentration of the compound is plotted on the x axis and the response (agonistic effect) is plotted on the y axis. The term “EC50” is the “half maximal effective concentration” and denotes the concentration of a particular compound required to obtain 50% of the maximum response (Emax) which is observed for that compound in the given in vitro assay.

Row | Compound | Emax | EC50
1 | O=C(NCc1ccnc(OC(F)F)c1)N[C@@H]1CCC[C@H](C(F)(F)F)C1 [Example 250, 1-[[2-(difluoromethoxy)pyridin-4-yl]methyl]-3-[(1R,3S)-3-(trifluoromethyl)cyclohexyl]urea] | 75% | 0.12 µM
2 | O=C(NCc1ccnc(OCC2CCC2)c1)N[C@H]1C[C@H](C(F)(F)F)C1 [Example 54, 1-[[2-(cyclobutylmethoxy)pyridin-4-yl]methyl]-3-[(1r,3r)-3-(trifluoromethyl)cyclobutyl]urea] | 62% | 0.15 µM
3 | O=C(NCc1ccnc(OC(F)F)c1)NC12CC(C1)C2 [Example 47, 1-(1-bicyclo[1.1.1]pentanyl)-3-[[2-(difluoromethoxy)pyridin-4-yl]methyl]urea] | 65% | 1.51 µM
4 | O=C(NCc1cc(OCC(F)(F)F)ncn1)N[C@H]1C[C@H](C(F)(F)F)C1 [Example 279, 1-[[6-(2,2,2-trifluoroethoxy)pyrimidin-4-yl]methyl]-3-[(1r,3r)-3-(trifluoromethyl)cyclobutyl]urea] | 75% | 0.17 µM
5 | O=C(NCc1ccnc(OC(F)F)c1)NC1C[C@H]2C[C@@H]1CC2(F)F (mixture of isomers) [Example 165, 1-[[2-(difluoromethoxy)pyridin-4-yl]methyl]-3-[rac-(1R,4R)-5,5-difluoro-2-bicyclo[2.2.1]heptanyl]urea] | 94% | 0.25 µM
6 | O=C(NCc1ccnc(OC(F)F)c1)N[C@@H]1CC[C@H](C(F)F)C1 (racemic) [Example 193, 1-[[2-(difluoromethoxy)pyridin-4-yl]methyl]-3-[rac-(1R,3S)-3-(difluoromethyl)cyclopentyl]urea] | 48% | 0.22 µM
7 | O=C(NCc1ccnc(OC(F)F)c1)Nc1cc(F)ccc1F [Example 244, 1-[[2-(difluoromethoxy)pyridin-4-yl]methyl]-3-(2,5-difluorophenyl)urea] | 50% | 0.25 µM
8 | Cc1cccc(NC(=O)NC(CO)c2ccnc(OCC(F)(F)F)c2)c1 (centres unmarked) [Example 233, 1-[2-hydroxy-1-[2-(2,2,2-trifluoroethoxy)pyridin-4-yl]ethyl]-3-(3-methylphenyl)urea] | 68% | 0.13 µM
9 | CC12CC(NC(=O)NCc3ccnc(OC(F)F)c3)(C1)C2 [Example 182, 1-[[2-(difluoromethoxy)pyridin-4-yl]methyl]-3-(3-methyl-1-bicyclo[1.1.1]pentanyl)urea] | 63% | 0.09 µM
10 | O=C(NC(CO)c1ccnc(OC(F)F)c1)N[C@@H]1COc2ccccc2C1 (stereo in doubt) [Example 278, rel-1-[1-[2-(difluoromethoxy)pyridin-4-yl]-2-hydroxyethyl]-3-[(3S)-3,4-dihydro-2H-chromen-3-yl]urea] | 52% | 0.43 µM
11 | O=C(NCc1ccnc(OC(F)F)c1)N[C@H]1CC[C@@H](C(F)(F)F)C1 [Example 144, 1-[[2-(difluoromethoxy)pyridin-4-yl]methyl]-3-[(1S,3R)-3-(trifluoromethyl)cyclopentyl]urea] | 48% | 0.22 µM
12 | O=C(NCc1ccnc(OC(F)F)c1)N[C@H](C1CCC1)C(F)(F)F [Example 241, 1-[(1R)-1-cyclobutyl-2,2,2-trifluoroethyl]-3-[[2-(difluoromethoxy)pyridin-4-yl]methyl]urea] | 68% | 0.07 µM
13 | O=C(NCc1ccnc(OCC(F)F)c1)N[C@H]1C[C@H](C(F)(F)F)C1 [Example 56, 1-[[2-(2,2-difluoroethoxy)pyridin-4-yl]methyl]-3-[(1r,3r)-3-(trifluoromethyl)cyclobutyl]urea] | 56% | 0.34 µM
14 | O=C(Nc1cccc(Cl)c1)NC(CO)c1ccnc(OC(F)F)c1 (single isomer, unassigned) [Example 263] | 73% | 0.31 µM
15 | O=C(NCc1ccnc(OC(F)F)c1)N[C@@H](C1CCC1)C(F)(F)F [Example 242, 1-[(1S)-1-cyclobutyl-2,2,2-trifluoroethyl]-3-[[2-(difluoromethoxy)pyridin-4-yl]methyl]urea] | 51% | 0.75 µM
16 | O=C(NCc1ccnc(OC(F)F)c1)N[C@H](C1CC1)C(F)(F)F [Example 134, 1-[(1R)-1-cyclopropyl-2,2,2-trifluoroethyl]-3-[[2-(difluoromethoxy)pyridin-4-yl]methyl]urea] | 43% | 0.55 µM
17 | O=C(NCc1ccnc(OC(F)F)c1)N[C@@H]1CC[C@H](C(F)(F)F)C1 (racemic) [Example 59, 1-[[2-(difluoromethoxy)pyridin-4-yl]methyl]-3-[rac-(1R,3S)-3-(trifluoromethyl)cyclopentyl]urea] | 65% | 0.11 µM

Row | Compound | Emax | EC50
18 | O=C(NCc1ccnc(OC(F)F)c1)NC1CCCCC1(O)C(F)(F)F (centres unmarked) [Example 147, 1-[[2-(difluoromethoxy)pyridin-4-yl]methyl]-3-[2-hydroxy-2-(trifluoromethyl)cyclohexyl]urea] | 56% | 0.54 µM
19 | O=C(NCc1ccnc(CC(F)(F)F)c1)NC12CC(F)(C1)C2 [Example 159, 1-(3-fluoro-1-bicyclo[1.1.1]pentanyl)-3-[[2-(2,2,2-trifluoroethyl)pyridin-4-yl]methyl]urea] | 67% | 5.18 µM
20 | O=C(NC(CO)c1ccnc(OC(F)F)c1)NC12CCC(F)(CC1)CC2 (centres unmarked) [Example 85, 1-[1-[2-(difluoromethoxy)pyridin-4-yl]-2-hydroxyethyl]-3-(4-fluoro-1-bicyclo[2.2.2]octanyl)urea] | 74% | 0.42 µM
21 | O=C(NCc1ccnc(OCC(F)(F)F)c1)N[C@@H]1C[C@@H]2[C@H](C1)C2(F)F [Example 238, 1-[(1R,3s,5S)-6,6-difluoro-3-bicyclo[3.1.0]hexanyl]-3-[[2-(2,2,2-trifluoroethoxy)pyridin-4-yl]methyl]urea] | 79% | 0.06 µM
22 | O=C(NCc1ccnc(OC(F)F)c1)N[C@H]1[C@@H]2CCC(F)(F)[C@@H]21 [Example 174, 1-[(1S,5R,6S)-2,2-difluoro-6-bicyclo[3.1.0]hexanyl]-3-[[2-(difluoromethoxy)pyridin-4-yl]methyl]urea] | 51% | 0.2 µM
23 | CC1(C)C[C@H](NC(=O)NCc2ccnc(-n3cnc(C(F)(F)F)c3)c2)[C@@H]1O (racemic) [Example 99, 1-[rac-(1R,2S)-2-hydroxy-3,3-dimethylcyclobutyl]-3-[[2-[4-(trifluoromethyl)imidazol-1-yl]pyridin-4-yl]methyl]urea] | 44% | 6.51 µM
24 | O=C(NCc1ccnc(OC(F)F)c1)NC1C[C@@H](F)[C@@H](F)C1 (mixture of isomers) [Example 234, 1-[[2-(difluoromethoxy)pyridin-4-yl]methyl]-3-[rac-(3R,4S)-3,4-difluorocyclopentyl]urea] | 56% | 4.27 µM
25 | O=C(NCc1ccnc(C(F)(F)F)c1)NC12CC(F)(C1)C2 [Example 153, 1-(3-fluoro-1-bicyclo[1.1.1]pentanyl)-3-[[2-(trifluoromethyl)pyridin-4-yl]methyl]urea] | 41% | 7.27 µM
26 | Cc1cc(NC(=O)NC(CO)c2ccnc(OCC(F)(F)F)c2)ccc1F (centres unmarked) [Example 205, 1-(4-fluoro-3-methylphenyl)-3-[2-hydroxy-1-[2-(2,2,2-trifluoroethoxy)pyridin-4-yl]ethyl]urea] | 64% | 0.24 µM
27 | O=C(NCc1ccnc(OCC(F)(F)F)c1)NCC1(C(F)(F)F)CC1 [Example 284, 1-[[2-(2,2,2-trifluoroethoxy)pyridin-4-yl]methyl]-3-[[1-(trifluoromethyl)cyclopropyl]methyl]urea] | 82% | 0.99 µM
28 | O=C(NCc1ccnc(OC(F)F)c1)N[C@H]1C[C@H]2CCC[C@@]2(CO)C1 (racemic) [Example 112, 1-[[2-(difluoromethoxy)pyridin-4-yl]methyl]-3-[rac-(2R,3aS,6aS)-6a-(hydroxymethyl)-2,3,3a,4,5,6-hexahydro-1H-pentalen-2-yl]urea] | 49% | 4.91 µM
29 | O=C(NCc1ccnc(-n2cnc(C(F)(F)F)c2)c1)N[C@H]1C[C@@H]2CC[C@H]1C2 (racemic) [Example 26, 1-[rac-(1R,2R,4S)-2-bicyclo[2.2.1]heptanyl]-3-[[2-[4-(trifluoromethyl)imidazol-1-yl]pyridin-4-yl]methyl]urea] | 65% | 0.38 µM
30 | COC12CC(NC(=O)NCc3ccnc(OC(F)F)c3)(C1)C2 [Example 49, 1-[[2-(difluoromethoxy)pyridin-4-yl]methyl]-3-(3-methoxy-1-bicyclo[1.1.1]pentanyl)urea] | 48% | 1.83 µM
31 | CC(F)(F)c1cc(CNC(=O)N[C@H]2C[C@H](C(F)(F)F)C2)ccn1 [Example 57, 1-[[2-(1,1-difluoroethyl)pyridin-4-yl]methyl]-3-[(1r,3r)-3-(trifluoromethyl)cyclobutyl]urea] | 60% | 0.61 µM
32 | O=C(NCc1ccnc(OC(F)F)c1)NC1CC1(F)F (centres unmarked) [Example 173, 1-(2,2-difluorocyclopropyl)-3-[[2-(difluoromethoxy)pyridin-4-yl]methyl]urea] | 57% | 4.4 µM
33 | O=C(NCc1ccnc(OC(F)F)c1)N[C@H]1C[C@@H](C(F)F)C1 [Example 137, 1-[[2-(difluoromethoxy)pyridin-4-yl]methyl]-3-[(1s,3s)-3-(difluoromethyl)cyclobutyl]urea] | 48% | 2.41 µM
34 | COc1cc(CNC(=O)NC23CCC(F)(CC2)CC3)ccn1 [Example 129, 1-(4-fluoro-1-bicyclo[2.2.2]octanyl)-3-[(2-methoxypyridin-4-yl)methyl]urea] | 53% | 4.97 µM
